Tests used:
glioblastoma = glioblastoma chemotherapy; cited from earlier work
[1] = test system: cancer cell lines of Table 2 (A549, A549/CR, A549/PR, CAPAN-1, NCI-H1048, MDA-MB-231, Mia PaCa-2, SNU-324, OVCAR3, PA-1, PANC-1, U-87 MG); assay: Cell viability assay (WST) with combination synergy analysis (Bliss score); type: cell-based, human; settings: combination with various DNA damage inducers, FIGS. 1 to 25; culture ended on days 7 to 9
Description: Most cell lines were obtained from the American Type Culture Collection (ATCC) or the Korean Cell Line Bank (KCLB). Combination experiments in cisplatin-resistant and paclitaxel-resistant cell lines were performed at the Asan Preclinical Evaluation center for cancer therapeutiX of Asan Medical Center, Seoul. All cell lines were maintained in appropriate growth medium for the cell line in 100-pi dishes oRT75 (75 cm2) flasks, cultured at 37° C. with 5% CO2, and passaged every 3-4 days. Growth medium conditions and cell line information are listed in Table 2, and the cells were counted using Countess (Invitrogen) to obtain the number of viable cells. Mutation and HRD status by cell type are described in Table 3.
The next day, compound-87 was diluted 1/2 to 1/4 to a concentration of 20 μM to 0.002 μM and treated at a set concentration range, and the co-administered drug was diluted 1/2 to 1/3 to a concentration of 100 μM to 0.00046 μM and treated at a 1:1 (v/v) ratio. Finally, the treatment ratio of compound-87 and the co-administered substance was between 1:20000 and 1:0.00015, and in clinical practice, compound-87: drug to be co-administered can be treated at a ratio of 1:10000 to 1:0.0001.
PANC-1 (wild-type BRCA1/BRCA2) pancreatic cancer cells were treated with compound-87 at concentrations of […], and E7016, a PARP inhibitor as a co-administered agent at concentration of 0.078, 0.156, 0.313, 0.625, 1.25, 2.5, 5, or 10 μM (FIG. 25). Cell culture was terminated on days 7 to 9, and cell viability and synergistic effect were evaluated for each combination of concentrations.
Cell viability was measured by a colorimetric assay using water-soluble tetrazolium salt (WST). […]
Results are normalized to DMSO-treated groups as 100% and expressed as the percent of viable cells upon compound addition. […]
The synergy of each compound was analyzed using Combenefit software (Cambridge Research UK, Cambridge Institute, University of Cambridge, United Kingdom), and synergy was evaluated by using Blliss (Ref: Di Veroli et al., 2016, Bioinformatics 32(18):2866-2868). […]

[2] = test system: human small cell lung cancer cells NCI-H1048; assay: Subcutaneous xenograft mouse model of NCI-H1048 small cell lung cancer cells, tumor growth inhibition; type: in vivo; settings: day 23; cisplatin alone, 4 mg/kg intraperitoneally once a week
Description: For in vivo efficacy study in a subcutaneous xenograft mouse model of human small cell lung cancer cells NCI-H1048, co-administration of compound-87 as a PRMT5 inhibitor according to an example of the present invention and cisplatin as an alkylating agent of a chemotherapeutic agent, was performed. To produce a small cell lung cancer xenograft model, 10 million of NCI-H1048 cells were injected subcutaneously into the right flank of female nude mice, and tumor growth was monitored.
To evaluate the anticancer effect, when the tumor volume reached approximately 162 mm^3 on average, the mice were divided into four groups. The all group included a solvent-treated group (Vehicle 1 (Compound-87)+Vehicle 2 (cisplatin) group), a Compound-87 monotherapy group (50 mg/kg), a cisplatin monotherapy group (4 mg/kg), and combination therapy group of Compound-87 and cisplatin. The Compound-87 treatment group was administered orally on a 3-day administration/4-day non-administration schedule, and cisplatin was administered intraperitoneally once a week for 22 days (Day 1-Day 23). All mice were euthanized on Day 22 (Day 23).

[3] = test system: CTG-1932, a human non-small cell lung cancer patient-derived cell line; assay: Subcutaneous xenograft mouse model of patient-derived CTG-1932 non-small cell lung cancer, tumor growth inhibition; type: in vivo; settings: day 9; paclitaxel 20 mg/kg i.p. once a week, single treatment; significant
Description: For in vivo efficacy studies in a subcutaneous xenograft mouse model of CTG-1932, a human non-small cell lung cancer patient-derived cell line, combination therapy of compound-87 as a PRMT5 inhibitor according to one example of the present invention and with paclitaxel as a chemotherapy agent, was performed at Champions Oncology (USA).
To produce a non-small cell lung cancer xenograft model, CTG-1932 tumor stock was grown and harvested from primary mice and then transplanted subcutaneously into the left flank of immunocompromised female mice as a 5×5×5 mm^3 tumor fragment. When the tumor volume reached approximately 150-300 mm^3, the mice were separated into four groups of 10 each. All group consisted of a solvent-treated group (vehicle group), a compound-87 monotherapy group (50 mg/kg, oral administration, 3 days on/4 days off), a paclitaxel monotherapy group (20 mg/kg, intraperitoneal administration once a week), and combination treatment group of compound-87 (50 mg/kg, oral administration, 3 days on/4 days off) and paclitaxel (20 mg/kg, intraperitoneal administration once a week). tumor volume and body weight were measured twice a week.

[4] = test system: symmetric dimethyl arginine (SDMA); assay: In vivo target inhibition: SDMA ELISA in tumor samples of the Mia PaCa-2 xenograft mouse model; settings: co-administration with 60 mg/kg gemcitabine
Description: Quantitative reduction levels of symmetric dimethyl arginine (SDMA) in tumor samples harvested from a subcutaneous xenograft mouse model of Mia PaCa-2 were measured by enzyme-linked immunosorbent assay (ELISA).
Reagents: Bradford solution (catalog no. 500-0006) was purchased from Bio-rad (USA). SDMA antibody (catalog no. 13222s) was purchased from Cell signaling Technology (USA). SmD3 antibody (catalog no. ap12451a) was purchased from Abgent (USA). Secondary antibody (catalog no. ab6721) and TMB substrate (catalog no. ab210902) were purchased from Abcam (UK).
Experimental procedure: Tumor tissue transplanted into mice was extracted, cells were lysed, and quantified with Bradford solution. […] of protein per sample was diluted with carbonate-bicarbonate buffer, dispensed into a 96-well plate, and reacted at room temperature for 2 hours. After washing three times with phosphate-buffered saline (PBST) containing 0.05% Tween-20, 200 μL of PBST containing 5% bovine serum albumin (BSA) (BSA-PBST) was added, and reacted at room temperature for 2 hours. After washing three times with PBST, 100 μL of SDMA antibody and SmD3 antibody were diluted in BSA-PBST, each was dispensed, and reacted overnight at 4° C. After washing three times with PBST on next day, 100 μL of secondary antibody diluted in BSA-PBST was added, and reacted at room temperature for 1 hour. After washing three times with PBST, 100 μL of TMB substrate was added and reacted at room temperature for 10-20 minutes, and 100 μL of 1N sulfuric acid solution was added to terminate the reaction. Then, the degree of SDMA inhibition by the compound was calculated by measuring the absorbance at 450 nm.

For `Cn1nnc2c(C(N)=O)ncn2c1=O` [temozolomide, 3-methyl-4-oxoimidazo[5,1-d][1,2,3,5]tetrazine-8-carboxamide], the average survival (glioblastoma) is given as ≤ 14.5 months.

For `O=C1c2ccc(O[C@@H]3CCN(C4COC4)C3)cc2OCCN1C[C@H](O)CN1CCc2ccccc2C1` [Compound-271, 4-[(2R)-3-(3,4-dihydro-1H-isoquinolin-2-yl)-2-hydroxy-propyl]-8-[(3R)-1-(oxetan-3-yl)pyrrolidin-3-yl]oxy-2,3-dihydro-1,4-benzoxazepin-5-one], the “inhibition of cell viability, combination treatment compared to single agent” value [1] was “enhanced inhibition effects of cell viability”.

With `CN1CCC(Oc2ccc3c(c2)OC(C)(C)CN(C[C@H](O)CN2CCc4ccccc4C2)C3=O)CC1` [Compound-112, 4-[(2R)-3-(3,4-dihydro-1H-isoquinolin-2-yl)-2-hydroxy-propyl]-2,2-dimethyl-8-[(1-methyl-4-piperidyl)oxy]-3H-1,4-benzoxazepin-5-one] the “inhibition of cell viability, combination treatment compared to single agent” value [1] was “enhanced inhibition effects of cell viability”.

In the case of `N.N.[Cl][Pt][Cl]` [cisplatin, azane; dichloroplatinum, reference compound], the “tumor growth inhibition rate” value [2] is reported as 62.9%.

With `CC(=O)O[C@H]1C(=O)[C@@]2(C)[C@H]([C@H](OC(=O)c3ccccc3)[C@]3(O)C[C@H](OC(=O)[C@H](O)[C@@H](NC(=O)c4ccccc4)c4ccccc4)C(C)=C1C3(C)C)[C@]1(OC(C)=O)CO[C@@H]1C[C@@H]2O` [paclitaxel, [(1S,2S,3R,4S,7R,9S,10S,12R,15S)-4,12-diacetyloxy-15-[(2R,3S)-3-benzamido-2-hydroxy-3-phenylpropanoyl]oxy-1,9-dihydroxy-10,14,17,17-tetramethyl-11-oxo-6-oxatetracyclo[11.3.1.03,10.04,7]heptadeca-13-en-2-yl]benzoate, reference compound] the “tumor growth inhibition compared to the solvent-treated group” value [3] was 75%.

In the case of `CC(=O)N1CCC(Oc2ccc3c(c2)OCCN(C[C@H](O)CN2CCc4ccccc4C2)C3=O)CC1` [Compound-78, 8-[(1-acetyl-4-piperidyl)oxy]-4-[(2R)-3-(3,4-dihydro-1H-isoquinolin-2-yl)-2-hydroxy-propyl]-2,3-dihydro-1,4-benzoxazepin-5-one], the “SDMA amount in tumor samples compared to the vehicle group” value ([4]; 25 mg/kg) is reported as 33.5%, the “SDMA amount in tumor samples compared to the vehicle group” value ([4]; 50 mg/kg) is reported as 24.9% and the inhibition at 25 mg/kg ([4]; Mus musculus, MIA PaCa-2, 25 mg/kg) is reported as 66.5%. For the same compound, the inhibition at 50 mg/kg ([4]; Mus musculus, MIA PaCa-2, 50 mg/kg) was 75.1%.

— patent US20260137700A1, “PHARMACEUTICAL COMBINATION OF PRMT5 INHIBITOR AND DNA DAMAGE-INDUCING SUBSTANCE” (SK Biopharmaceuticals Co., Ltd., priority 2022, published 2026)
